These results are taken from patent publication US9376442B2, “Methylpyrrolopyrimidinecarboxamides” (Takeda GmbH, priority 2009, dated 2016).

This test addresses T1, PDE5A1 (Homo sapiens, UniProt O76074).
T1 construct: from tissue; host or cells: human platelets from fresh donor blood (10,000 x g supernatant of sonicated lysate)
Kind of test: Inhibition of type 5 phosphodiesterase (PDE5) activity, modified SPA test with human platelet lysate. The test is classed as biochemical. The settings on record: 0.5 μM cGMP, read-out: PDE5A1 inhibitory values [measured as −log IC50 (mol/l)] (converted). In outline:
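Enzyme source is lysate from human platelets (10,000 g supernatant). Compound preincubated 5 min at 37° C in Tris pH 7.4 containing 1 μM motapizone and 10 nM of a PDE2 inhibitor. Reaction started with 0.5 μM cGMP ([3H] tracer) and run 15 min; SPA read-out, IC50 by non-linear regression.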
Take `COc1cc(-c2ncnc3c(C(=O)N[C@@H]4CCN(C(=O)[C@H](C)O)C4)c(C)[nH]c23)c(OCC2CC2)cc1F` [Example F112, 4-[2-(Cyclopropylmethoxy)-4-fluoro-5-methoxyphenyl]-N-{(3R)-1-[(2S)-2-hydroxypropanoyl]pyrrolidin-3-yl}-6-methyl-5H-pyrrolo[3,2-d]pyrimidine-7-carboxamide]: the IC50 is less than 1 nM.
Then `CCC(=O)N1C[C@@H](O)[C@H](NC(=O)c2c(C)[nH]c3c(-c4cc(OC)ccc4OCC4CC4)ncnc23)C1` (relative stereo) [Example E193, 4-[2-(Cyclopropylmethoxy)-5-methoxyphenyl]-N-[(3R*,4R*)-4-hydroxy-1-propionylpyrrolidin-3-yl]-6-methyl-5H-pyrrolo[3,2-d]pyrimidine-7-carboxamide], with 1 to 10 nM.
Turning to `COCC(=O)N1C[C@@H](O)[C@H](NC(=O)c2c(C)[nH]c3c(-c4c(OCC5CC5)ccc5c4OCO5)ncnc23)C1` (relative stereo) [Example E18, 4-[5-(Cyclopropylmethoxy)-1,3-benzodioxol-4-yl]-N-[(3R*,4R*)-4-hydroxy-1-(methoxyacetyl)pyrrolidin-3-yl]-6-methyl-5H-pyrrolo[3,2-d]pyrimidine-7-carboxamide], the IC50 is less than 1 nM.
In the case of `CC(=O)N1CC[C@@H](NC(=O)c2c(C)[nH]c3c(-c4cc(F)ccc4OCC4CC4)ncnc23)[C@H](O)C1` (relative stereo) [Example E49, N-[(3R*,4R*)-1-acetyl-3-hydroxypiperidin-4-yl]-4-[2-(cyclopropylmethoxy)-5-fluorophenyl]-6-methyl-5H-pyrrolo[3,2-d]pyrimidine-7-carboxamide], the IC50 was 1 to 10 nM.
On to `CCC(=O)N1CC[C@@H](NC(=O)c2c(C)[nH]c3c(-c4cc(OC)c(F)cc4OCC4CC4)ncnc23)[C@H](O)C1` (relative stereo) [Example E114, 4-[2-(Cyclopropylmethoxy)-4-fluoro-5-methoxyphenyl]-N-[(3R*,4R*)-3-hydroxy-1-propionylpiperidin-4-yl]-6-methyl-5H-pyrrolo[3,2-d]pyrimidine-7-carboxamide], for which the IC50 was less than 1 nM.
With `COCC(=O)N1CC[C@@H](NC(=O)c2c(C)[nH]c3c(-c4ccc(OC)cc4OCC4CC4)ncnc23)C1` [Example E62, 4-[2-(Cyclopropylmethoxy)-4-methoxyphenyl]-N-[(3R)-1-(methoxyacetyl)pyrrolidin-3-yl]-6-methyl-5H-pyrrolo[3,2-d]pyrimidine-7-carboxamide], the IC50 was less than 1 nM.
For `COc1ccc(OCC2CC2)c(-c2ncnc3c(C(=O)N[C@@H]4CCN(C(=O)CO)C4)c(C)[nH]c23)c1` [Example F47, 4-[2-(cyclopropylmethoxy)-5-methoxyphenyl]-N-[(3R)-1-glycoloylpyrrolidin-3-yl]-6-methyl-5H-pyrrolo[3,2-d]pyrimidine-7-carboxamide], the IC50 is less than 1 nM.
On to `COCC(=O)N1C[C@@H](O)[C@H](NC(=O)c2c(C)[nH]c3c(-c4cc(OC)ccc4OCC4CC4)ncnc23)C1` (relative stereo) [Example E194, 4-[2-(Cyclopropylmethoxy)-5-methoxyphenyl]-N-[(3R*,4R*)-4-hydroxy-1-(methoxyacetyl)pyrrolidin-3-yl]-6-methyl-5H-pyrrolo[3,2-d]pyrimidine-7-carboxamide], for which the IC50 is 1 to 10 nM.
In the case of `CC(=O)c1ccc(OCC2CC2)c(-c2ncnc3c(C(=O)NC4CCN(C(=O)[C@H](C)O)CC4)c(C)[nH]c23)c1` [Example F103, 4-[5-Acetyl-2-(cyclopropylmethoxy)phenyl]-N-{1-[(2S)-2-hydroxypropanoyl]piperidin-4-yl}-6-methyl-5H-pyrrolo[3,2-d]pyrimidine-7-carboxamide], the IC50 is less than 1 nM.
As to `CCOC(=O)N1CC[C@@H](NC(=O)c2c(C)[nH]c3c(-c4cc(OC)c(F)cc4OCC4CC4)ncnc23)C1` [Example E182, Ethyl (3R)-3-[({4-[2-(cyclopropylmethoxy)-4-fluoro-5-methoxyphenyl]-6-methyl-5H-pyrrolo[3,2-d]pyrimidin-7-yl}carbonyl)amino]pyrrolidine-1-carboxylate], the IC50 was less than 1 nM.
As for `COCC(=O)N[C@H]1CC[C@H](NC(=O)c2c(C)[nH]c3c(-c4ccc(F)cc4OCC4CC4)ncnc23)CC1` [Example E24, 4-[2-(Cyclopropylmethoxy)-4-fluorophenyl]-N-{trans-4-[(methoxyacetyl)amino]cyclohexyl}-6-methyl-5H-pyrrolo[3,2-d]pyrimidine-7-carboxamide], the IC50 is less than 1 nM.
Take `CCC(=O)N[C@H]1CC[C@@H](NC(=O)c2c(C)[nH]c3c(-c4cc(F)c(OC)cc4OCC4CC4)ncnc23)CC1` [Example E139, 4-[2-(Cyclopropylmethoxy)-5-fluoro-4-methoxyphenyl]-6-methyl-N-[cis-4-(propionylamino)cyclohexyl]-5H-pyrrolo[3,2-d]pyrimidine-7-carboxamide]: the IC50 was less than 1 nM.
`CC(=O)N[C@H]1CC[C@@H](NC(=O)c2c(C)[nH]c3c(-c4ccc(F)cc4OCC4CC4)ncnc23)CC1` [Example E25, N-(cis-4-acetamidocyclohexyl)-4-[2-(cyclopropylmethoxy)-4-fluorophenyl]-6-methyl-5H-pyrrolo[3,2-d]pyrimidine-7-carboxamide]: the IC50 is less than 1 nM.
The result for `CC(=O)N[C@H]1CC[C@H](NC(=O)c2c(C)[nH]c3c(-c4cc(C)c(F)cc4OCC4CC4)ncnc23)CC1` [Example E122, N-[trans-4-(Acetylamino)cyclohexyl]-4-[2-(cyclopropylmethoxy)-4-fluoro-5-methylphenyl]-6-methyl-5H-pyrrolo[3,2-d]pyrimidine-7-carboxamide] reads less than 1 nM.
As for `COc1ccc(-c2ncnc3c(C(=O)NC4CN(C(=O)C(C)O)CC4O)c(C)[nH]c23)c(OCC2CC2)c1` (mixture of isomers) [Example F40, Diastereomeric mixture of 4-[2-(cyclopropylmethoxy)-4-methoxyphenyl]-N{(3R,4R)-4-hydroxy-1-[(2S)-2-hydroxypropanoyl]pyrrolidin-3-yl}-6-methyl-5H-pyrrolo[3,2-d]pyrimidine-7-carboxamide and 4-[2-(cyclopropylmethoxy)-4-methoxyphenyl]-N-{(3S,4S)-4-hydroxy-1-[(2S)-2-hydroxypropanoyl]pyrrolidin-3-yl}-6-methyl-5H-pyrrolo[3,2-d]pyrimidine-7-carboxamide], the IC50 is less than 1 nM.
The result for `CCC(=O)N1CC[C@@H](NC(=O)c2c(C)[nH]c3c(-c4cc(C)c(F)cc4OCC4CC4)ncnc23)[C@H](O)C1` (relative stereo) [Example E129, 4-[2-(cyclopropylmethoxy)-4-fluoro-5-methylphenyl]-N-[(3R*,4R*)-3-hydroxy-1-propanoylpiperidin-4-yl]-6-methyl-5H-pyrrolo[3,2-d]pyrimidine-7-carboxamide] reads less than 1 nM; that for `COCC(=O)N1C[C@@H](O)[C@H](NC(=O)c2c(C)[nH]c3c(-c4cc(F)c(OC)cc4OCC4CC4)ncnc23)C1` (relative stereo) [Example E191, 4-[2-(Cyclopropylmethoxy)-5-fluoro-4-methoxyphenyl]-N-[(3R*,4R*)-4-hydroxy-1-(methoxyacetyl)pyrrolidin-3-yl]-6-methyl-5H-pyrrolo[3,2-d]pyrimidine-7-carboxamide], less than 1 nM.
